In US8846917B2, “Compounds useful as inhibitors of ATR kinase” (Vertex Pharmaceuticals Incorporated, priority 2011, dated 2014):

Molecular target: full-length ATR (Homo sapiens (Human), UniProt Q13535)
Experiment: ATR Inhibition Assay (radioactive-phosphate incorporation)
Assay type: biochemical
Settings: Ki(app); 10 μM ATP, 800 μM target peptide, 5 nM full-length ATR, 25° C.
Protocol: Compounds were screened for their ability to inhibit ATR kinase using a radioactive-phosphate incorporation assay. Assays were carried out in a mixture of 50 mM Tris/HCl (pH 7.5), 10 mM MgCl2 and 1 mM DTT. […] Assays were carried out at 25° C. in the presence of 5 nM full-length ATR. An assay stock buffer solution was prepared containing all of the reagents listed above, with the exception of ATP and the test compound of interest. […] The plate was pre-incubated for 10 minutes at 25° C. and the reaction initiated by addition of 15 μL [γ-33P]ATP (final concentration 10 μM). The reaction was stopped after 24 hours by the addition of 30 μL 0.1M phosphoric acid containing 2 mM ATP. A multiscreen phosphocellulose filter 96-well plate (Millipore, Cat no. MAPHN0B50) was pretreated with 100 μL 0.2M phosphoric acid prior to the addition of 45 μL of the stopped assay mixture. The plate was washed with 5×200 μL 0.2M phosphoric acid. After drying, 100 μL Optiphase ‘SuperMix’ liquid scintillation cocktail (Perkin Elmer) was added to the well prior to scintillation counting (1450 Microbeta Liquid Scintillation Counter, Wallac). After removing mean background values for all of the data points, Ki(app) data were calculated from non-linear regression analysis of the initial rate data using the Prism software package (GraphPad Prism version 3.0cx for Macintosh, GraphPad Software, San Diego Calif., USA).

Chain of full-length ATR (Q13535 whole entry): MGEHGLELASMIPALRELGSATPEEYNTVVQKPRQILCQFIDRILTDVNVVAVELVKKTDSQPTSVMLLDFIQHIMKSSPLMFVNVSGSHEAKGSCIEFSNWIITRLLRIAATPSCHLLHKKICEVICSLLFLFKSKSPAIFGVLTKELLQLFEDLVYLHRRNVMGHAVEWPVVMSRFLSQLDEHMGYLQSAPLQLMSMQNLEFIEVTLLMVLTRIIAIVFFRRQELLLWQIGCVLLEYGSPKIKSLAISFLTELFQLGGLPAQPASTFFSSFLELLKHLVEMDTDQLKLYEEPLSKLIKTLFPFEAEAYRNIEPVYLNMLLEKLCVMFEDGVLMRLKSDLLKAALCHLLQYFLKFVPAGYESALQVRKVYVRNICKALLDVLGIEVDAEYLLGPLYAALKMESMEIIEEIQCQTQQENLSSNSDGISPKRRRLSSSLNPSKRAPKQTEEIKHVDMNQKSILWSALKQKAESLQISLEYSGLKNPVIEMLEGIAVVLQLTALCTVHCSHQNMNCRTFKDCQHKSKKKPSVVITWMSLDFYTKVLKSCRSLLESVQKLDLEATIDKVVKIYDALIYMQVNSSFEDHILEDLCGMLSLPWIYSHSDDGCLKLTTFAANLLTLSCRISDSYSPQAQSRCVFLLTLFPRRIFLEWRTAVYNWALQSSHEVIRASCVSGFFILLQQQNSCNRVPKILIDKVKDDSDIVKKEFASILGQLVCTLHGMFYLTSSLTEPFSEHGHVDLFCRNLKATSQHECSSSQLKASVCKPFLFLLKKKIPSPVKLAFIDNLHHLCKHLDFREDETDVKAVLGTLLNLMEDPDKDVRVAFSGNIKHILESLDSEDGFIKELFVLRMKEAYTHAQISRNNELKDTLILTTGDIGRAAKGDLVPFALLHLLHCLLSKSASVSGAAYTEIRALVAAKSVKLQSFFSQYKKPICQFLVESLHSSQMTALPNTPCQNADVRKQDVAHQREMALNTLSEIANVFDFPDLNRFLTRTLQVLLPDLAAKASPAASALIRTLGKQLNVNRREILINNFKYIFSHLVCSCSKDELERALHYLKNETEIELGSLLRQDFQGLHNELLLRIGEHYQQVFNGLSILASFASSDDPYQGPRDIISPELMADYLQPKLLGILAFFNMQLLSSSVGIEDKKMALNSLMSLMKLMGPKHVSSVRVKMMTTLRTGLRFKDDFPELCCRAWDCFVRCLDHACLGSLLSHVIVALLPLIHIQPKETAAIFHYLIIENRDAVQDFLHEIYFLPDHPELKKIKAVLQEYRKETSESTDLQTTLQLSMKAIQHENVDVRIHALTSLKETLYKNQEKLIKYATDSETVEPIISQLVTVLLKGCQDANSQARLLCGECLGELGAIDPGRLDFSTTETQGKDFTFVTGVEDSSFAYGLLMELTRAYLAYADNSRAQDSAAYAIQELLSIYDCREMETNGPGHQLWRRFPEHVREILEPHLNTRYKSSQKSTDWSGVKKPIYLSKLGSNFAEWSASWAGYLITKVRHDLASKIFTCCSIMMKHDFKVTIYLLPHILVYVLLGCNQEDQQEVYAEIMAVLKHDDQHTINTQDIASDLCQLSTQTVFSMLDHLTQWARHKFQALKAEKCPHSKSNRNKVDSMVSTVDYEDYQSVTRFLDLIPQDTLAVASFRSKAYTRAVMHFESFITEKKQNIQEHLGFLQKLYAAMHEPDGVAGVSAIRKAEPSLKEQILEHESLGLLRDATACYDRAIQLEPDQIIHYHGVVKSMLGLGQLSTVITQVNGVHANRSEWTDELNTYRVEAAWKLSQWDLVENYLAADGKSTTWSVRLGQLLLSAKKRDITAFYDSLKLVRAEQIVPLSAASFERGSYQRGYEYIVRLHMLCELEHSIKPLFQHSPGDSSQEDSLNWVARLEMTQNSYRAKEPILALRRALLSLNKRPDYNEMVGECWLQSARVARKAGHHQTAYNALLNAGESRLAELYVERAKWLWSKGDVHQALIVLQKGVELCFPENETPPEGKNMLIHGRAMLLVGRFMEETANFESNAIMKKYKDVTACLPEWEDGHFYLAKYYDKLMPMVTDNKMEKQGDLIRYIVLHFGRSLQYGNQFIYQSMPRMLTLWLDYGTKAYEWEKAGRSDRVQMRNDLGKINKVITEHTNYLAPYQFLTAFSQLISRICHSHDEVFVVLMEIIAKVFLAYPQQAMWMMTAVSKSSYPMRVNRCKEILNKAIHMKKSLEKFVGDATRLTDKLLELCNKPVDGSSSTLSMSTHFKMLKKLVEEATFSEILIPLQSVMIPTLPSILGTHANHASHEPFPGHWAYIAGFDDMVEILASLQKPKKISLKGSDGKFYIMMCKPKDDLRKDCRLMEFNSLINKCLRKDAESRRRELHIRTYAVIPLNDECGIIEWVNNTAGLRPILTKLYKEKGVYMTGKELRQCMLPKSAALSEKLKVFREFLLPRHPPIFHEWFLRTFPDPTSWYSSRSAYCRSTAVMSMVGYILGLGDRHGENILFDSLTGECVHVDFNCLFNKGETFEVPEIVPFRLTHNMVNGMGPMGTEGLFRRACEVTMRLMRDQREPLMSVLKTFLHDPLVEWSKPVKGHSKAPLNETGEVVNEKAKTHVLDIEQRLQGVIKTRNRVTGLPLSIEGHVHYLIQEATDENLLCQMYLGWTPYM

Work on CC(C)S(=O)(=O)c1ccc(-c2cnc(N)c(-c3cn(-c4ccccc4)nn3)n2)cc1 [Compound I-1, 5-(4-(isopropylsulfonyl)phenyl)-3-(1-phenyl-1H-1,2,3-triazol-4-yl)pyrazin-2-amine] yielded a Ki of 6 nM.
